Experimental findings from patent US20250230138A1, “COMPOUNDS HAVING A T-STRUCTURE FORMED BY AT LEAST FOUR CYCLES FOR USE IN THE TREATMENT OF CANCER AND OTHER INDICATIONS” (TheRas, Inc., priority 2022, published 2025) are described below.

Usually IC50 stands for the point on the concentration scale where inhibition reaches its midpoint.

Like-named read-outs stand apart in the source and are kept apart here.

One test concerns pAKT in BT474 cells. Put plainly: Cell-based pAKT HTRF assay in BT474 cells. The following applies: BT474 cells, 4 hr incubation, read-out: pAKT inhibition IC50 in BT474 cells. A digest of the protocol: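 The HTRF signal (excitation 320 nm, emission 615 nm) came from d2/Eu Cryptate antibodies added to lysates and incubated 4–24 h at room temperature. Those lysates were taken from cells treated for 4 hr with compound, top concentration 3 μM, in 0.25% DMSO.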

The target in test [1] is Cys242 in human PIK3CA (157-299) (Homo sapiens (Human), UniProt P42336). The test can be described thus: Covalent modification assay using MALDI-TOF MS. In kind it is biochemical. To be noted: 4 h reaction time point. A digest of the protocol:
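Covalent adduct formation was read by linear-mode MALDI-TOF with sinapinic acid matrix, reported as modified-protein peak height divided by total protein peak heights. Reactions held PIK3CA (157-299) at 1 or 3.33 μM in HEPES/NaCl/MgCl2 buffer, pH 7.3, sampled after 15 min to 4 h at room temperature.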

The mark [2] stands for this setting: 1 μM protein target, 1:5 protein to compound ratio (compounds 853-1279).
Where [3] appears, read: 3.33 μM protein target, 1:7.5 protein to compound ratio (compounds 1-852).

Chain of Cys242 in human PIK3CA (157-299) (P42336 157-299): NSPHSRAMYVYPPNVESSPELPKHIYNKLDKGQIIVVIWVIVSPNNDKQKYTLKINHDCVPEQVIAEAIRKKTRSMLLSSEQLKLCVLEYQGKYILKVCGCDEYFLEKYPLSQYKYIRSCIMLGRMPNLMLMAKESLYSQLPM

Turning to `C#CC(=O)N1CCn2nc(-c3nc(-c4ccc5c(cnn5C)c4)c4ccsc4c3-c3c(F)cc(F)cc3OCCOC)cc2[C@H]1C` [Compound 1229], the half-maximal inhibitory concentration (IC50) in the test on pAKT in BT474 cells (Compounds 1000-1279) is above 1000 nM. In addition, the “% of modification” value in test [1] (setting [2]) is given as “A (percent of modification of PIK3CA protein ≥75%)”.
Take `C=CC(=O)N1CC(n2cc(-c3nc(C4=CCN(C(C)=O)CC4)c4ccsc4c3-c3ccc(F)cc3OC)cn2)C1` [Compound 298]: the IC50 in the test with pAKT in BT474 cells (Compounds 10-999) lay within 100 to 1000 nM. Moreover, the “% of modification” value in test [1] (setting [3]) is listed as “A (percent of modification of PIK3CA protein ≥75%)”.
On to `C=CC(=O)N1CCn2nc(-c3nc(-c4ccc(N5CCN(C)CC5)cc4)c4ccsc4c3-c3c(F)cc(F)cc3OCCOC)cc2C1C` (stereo not drawn) [Compound 1082], for which the IC50 with pAKT in BT474 cells (Compounds 1000-1279) was below 100 nM. Also, in test [1] (setting [2]), the “% of modification” value is reported as “A (percent of modification of PIK3CA protein ≥75%)”.
For the compound `C=CC(=O)N1CCc2nc(-c3nc(-c4cnc(C)s4)c4ccsc4c3-c3c(F)cc(F)cc3OCCOC)sc2C1` [Compound 431], the IC50 in the test on pAKT in BT474 cells (Compounds 10-999) lay within 100 to 1000 nM. Also, the “% of modification” value in test [1] (setting [3]) is “A (percent of modification of PIK3CA protein ≥75%)”.
As for `C=CC(=O)N1Cc2cc(-c3nc(-c4cnn(CC(C)(C)O)c4)c4ccsc4c3-c3c(F)cc(F)cc3OC(C)C)nn2[C@@H](C)C1` [Compound 493], in the test on pAKT in BT474 cells (Compounds 10-999), the IC50 is below 100 nM. The “% of modification” value in test [1] (setting [3]) is on record as “A (percent of modification of PIK3CA protein ≥75%)”.
On to `C=CC(=O)N1CCc2ncc(-c3nc(-c4ccc5nn(C)cc5c4)c4ccsc4c3-c3c(F)cc(F)cc3OCCOC)cc2C1` [Compound 945], for which the half-maximal inhibitory concentration (IC50) with pAKT in BT474 cells (Compounds 10-999) was below 100 nM. Also, the “% of modification” value in test [1] (setting [2]) is “A (percent of modification of PIK3CA protein ≥75%)”.
As for `C=CC(=O)N1CCn2nc(-c3nc(-c4ccc(C(=O)N5CCN(C)CC5)cc4)c4ccsc4c3-c3c(F)cc(F)cc3OCCOC)cc2C1C` (stereo not drawn) [Compound 1096], the IC50 in the test with pAKT in BT474 cells (Compounds 1000-1279) was below 100 nM. In addition, the “% of modification” value in test [1] (setting [2]) is recorded as “A (percent of modification of PIK3CA protein ≥75%)”.
`C=CC(=O)N1CCn2nc(-c3nc(-c4ccc5c(c4)C(=O)NC5)c4ccsc4c3-c3c(F)cc(F)cc3OCC(C)O)cc2C1C` (stereo not drawn) [Compound 879]: in the test with pAKT in BT474 cells (Compounds 10-999), the IC50 was below 100 nM. In addition, the “% of modification” value in test [1] (setting [2]) is “A (percent of modification of PIK3CA protein ≥75%)”.
As to `C=CC(=O)N1CCn2nc(-c3nc(-c4cc5c(cc4OC)C(=O)NC5)c4ccsc4c3-c3c(F)cc(F)cc3OCCOC)cc2[C@H]1C` [Compound 1063], the half-maximal inhibitory concentration (IC50) in the test with pAKT in BT474 cells (Compounds 1000-1279) was below 100 nM. For the same compound, in test [1] (setting [2]), the “% of modification” value is “A (percent of modification of PIK3CA protein ≥75%)”.
With `C=CC(=O)N1CCn2nc(-c3nc(-c4ccc5c(c4)CCN(C)C5)c4ccsc4c3-c3c(F)cc(F)cc3OCCOC)cc2[C@H]1C` [Compound 510], the concentration for half-maximal inhibition (IC50) with pAKT in BT474 cells (Compounds 10-999) is below 100 nM. In test [1] (setting [3]), the “% of modification” value is reported as “A (percent of modification of PIK3CA protein ≥75%)”.
The matching figures for `C=CC(=O)N1CC(n2cc(-c3nc(-c4ccc5c(c4)CNC(=O)C5)c4ccsc4c3-c3ccc[nH]c3=O)cn2)C1` [Compound 91]: above 3000 nM and “D (percent of modification <25%)”.
The matching figures for `C=CC(=O)N1CC(n2cc(-c3nc(-c4ccc(S(N)(=O)=O)cc4)c4ccsc4c3-c3ccc(F)cc3OCCOC)cn2)C1` [Compound 238]: below 100 nM and “A (percent of modification of PIK3CA protein ≥75%)”.
The matching figures for `C=CC(=O)N1Cc2cc(-c3nc(-c4cnn(C)c4)c4ccsc4c3-c3c(F)cc(F)cc3OCCO)nn2[C@@H](C)C1` [Compound 519]: below 100 nM and “A (percent of modification of PIK3CA protein ≥75%)”.
As to `C=CC(=O)N1CCn2nc(-c3nc(-c4ccc(CN5CC(F)(F)C5)nc4)c4ccsc4c3-c3c(F)cc(F)cc3OCCOC)cc2[C@H]1C` [Compound 529], the IC50 with pAKT in BT474 cells (Compounds 10-999) is below 100 nM. In addition, in test [1] (setting [3]), the “% of modification” value is recorded as “A (percent of modification of PIK3CA protein ≥75%)”.
The like results for `C=C(F)C(=O)N1CCn2nc(-c3nc(-c4ccc5c(c4)[C@@H](O)CC5)c4ccsc4c3-c3ccc(F)cc3OC(C)C)cc2C1` [Compound 308] were, in that order, 100 to 1000 nM and “A (percent of modification of PIK3CA protein ≥75%)”.
The like results for `C=CC(=O)N1CCn2nc(-c3nc(-c4ccc5c(c4)C(O)CC5)c4ccsc4c3-c3ccc(F)cc3OCCOC)nc2C1` (stereo not drawn) [Compound 192] were, in that order, below 100 nM and “A (percent of modification of PIK3CA protein ≥75%)”.
For the compound `C=CC(=O)N1CCn2nc(-c3nc(-c4ccc(C(=O)N(C)CCN(C)C)cc4)c4ccsc4c3-c3c(F)cc(F)cc3OCCOC)cc2C1C` (stereo not drawn) [Compound 1206], in the test on pAKT in BT474 cells (Compounds 1000-1279), the IC50 is below 100 nM. Also, the “% of modification” value in test [1] (setting [2]) is “A (percent of modification of PIK3CA protein ≥75%)”.
As to `C=CC(=O)N1CC[C@@H](n2cc(-c3nc(-c4cncc(C#N)c4)c4ccsc4c3-c3c(F)cc(F)cc3OC(C)C)cn2)C1` [Compound 388], the IC50 with pAKT in BT474 cells (Compounds 10-999) lay within 100 to 1000 nM. Also, the “% of modification” value in test [1] (setting [3]) is “A (percent of modification of PIK3CA protein ≥75%)”.
In the case of `C=CC(=O)N1CCn2nc(-c3nc(-c4ccc5c(c4)C4(CC4)CN(C)C5)c4ccsc4c3-c3c(F)cc(F)cc3OCCO)cc2C1C` (stereo not drawn) [Compound 1197], in the test on pAKT in BT474 cells (Compounds 1000-1279), the IC50 is below 100 nM. The “% of modification” value in test [1] (setting [2]) is “A (percent of modification of PIK3CA protein ≥75%)”.
For `C=CC(=O)N1CCn2nc(-c3nc(-c4ccc5c(c4)CCNC5)c4ccsc4c3-c3ccc(F)cc3OCC3CCNC(=O)C3)cc2C1` (stereo not drawn) [Compound 261], the IC50 in the test with pAKT in BT474 cells (Compounds 10-999) is below 100 nM. In addition, the “% of modification” value in test [1] (setting [3]) was “A (percent of modification of PIK3CA protein ≥75%)”.
The matching figures for `C=CC(=O)N1CC[C@H](n2cc(-c3nc(-c4ccc5c(c4)CNC5=O)c4ccsc4c3-c3ccc(F)cc3OC(C)C)cn2)C1` [Compound 328]: below 100 nM and “A (percent of modification of PIK3CA protein ≥75%)”.
The matching figures for `C=CC(=O)N1Cc2cc(-c3nc(-c4cnn(C)c4)c4ccsc4c3-c3c(F)cc(F)cc3OCCOC)nn2C[C@H]1C` [Compound 577]: below 100 nM and “A (percent of modification of PIK3CA protein ≥75%)”.
The like results for `C=CC(=O)N1CCc2nc(-c3nc(-c4cnc5c(c4)CNC(=O)C5)c4ccsc4c3-c3c(F)cc(F)cc3OC(C)C)sc2C1` (single isomer, unassigned) [Compound 588] were, in that order, below 100 nM and “A (percent of modification of PIK3CA protein ≥75%)”.
In the case of `C=CC(=O)N1CCc2ncc(-c3nc(-c4ccc5ncn(C)c5c4)c4ccsc4c3-c3c(F)cc(F)cc3OCCOC)cc2C1` [Compound 403], in the test with pAKT in BT474 cells (Compounds 10-999), the half-inhibitory concentration (IC50) was below 100 nM. Besides, the “% of modification” value in test [1] (setting [3]) is listed as “A (percent of modification of PIK3CA protein ≥75%)”.
Turning to `C=CC(=O)N1CCc2nc(-c3nc(-c4ccc5c(c4)CNC5=O)c4ccsc4c3-c3c(F)cc(F)cc3OC(C)C)sc2C1` (single isomer, unassigned) [Compound 414], the IC50 in the test with pAKT in BT474 cells (Compounds 10-999) was below 100 nM. Further, the “% of modification” value in test [1] (setting [3]) is recorded as “A (percent of modification of PIK3CA protein ≥75%)”.
For the compound `C=CC(=O)N1Cc2cc(-c3nc(-c4ccnc(N(C)C)c4)c4ccsc4c3-c3c(F)cc(F)cc3OCCOC)nn2C[C@H]1C` [Compound 839], the IC50 in the test on pAKT in BT474 cells (Compounds 10-999) is below 100 nM. Further, the “% of modification” value in test [1] (setting [3]) is on record as “A (percent of modification of PIK3CA protein ≥75%)”.
The matching figures for `C=CC(=O)N1CCc2nc(-c3nc(-c4cnc5c(c4)CNC(=O)C5)c4ccsc4c3-c3ccc(F)cc3OCCOC)sc2C1` [Compound 119]: below 100 nM and “A (percent of modification of PIK3CA protein ≥75%)”.
In the case of `C=CC(=O)N1Cc2cc(-c3nc(-c4ccc5nncn5c4)c4ccsc4c3-c3c(F)cc(F)cc3OCC(C)O)nn2C(C)C1` (stereo not drawn) [Compound 643], the IC50 in the test with pAKT in BT474 cells (Compounds 10-999) was below 100 nM. Further, the “% of modification” value in test [1] (setting [3]) is given as “A (percent of modification of PIK3CA protein ≥75%)”.
With `C=CC(=O)N1CCn2nc(-c3nc(-c4ccc5c(c4)CNC5=O)c4ccsc4c3-c3c(F)cc(F)cc3OCCOC)cc2[C@@H]1C` [Compound 545], in the test with pAKT in BT474 cells (Compounds 10-999), the half-maximal inhibitory concentration (IC50) is below 100 nM. The “% of modification” value in test [1] (setting [3]) is recorded as “A (percent of modification of PIK3CA protein ≥75%)”.
The matching figures for `C=C(F)C(=O)N1CCn2nc(-c3nc(-c4cnc5c(c4)CNC5=O)c4ccsc4c3-c3c(F)cc(F)cc3OC(C)C)cc2C1` [Compound 356]: below 100 nM and “A (percent of modification of PIK3CA protein ≥75%)”.
The matching figures for `C=CC(=O)N1Cc2cc(-c3nc(-c4ccc5c(c4)CCN(C)C5)c4ccsc4c3-c3c(F)cc(F)cc3OC[C@@H](C)O)nn2C[C@H]1C` [Compound 605]: below 100 nM and “A (percent of modification of PIK3CA protein ≥75%)”.
As for `C=CC(=O)N1Cc2cc(-c3nc(-c4ccc5c(c4)CCN(C)C5)c4ccsc4c3-c3c(F)cc(F)cc3OC(C)C)cnc2C[C@H]1C` [Compound 476, 1-((7R)-3-(7-(2,4-difluoro-6-isopropoxyphenyl)-4-(2-methyl-1,2,3,4-tetrahydroisoquinolin-6-yl)thieno[3,2-c]pyridin-6-yl)-7-methyl-7,8-dihydro-1,6-naphthyridin-6(5H)-yl)prop-2-en-1-one], in the test with pAKT in BT474 cells (Homo sapiens, BT-474, Compounds 10-999), the IC50 lay in the range of 100 to 1000 nM. Also, the “% of modification” value in test [1] (setting [3]) is “A (percent of modification of PIK3CA protein ≥75%)”.
As for `C=CC(=O)N1Cc2cc(-c3nc(-c4ccc5c(cnn5C)c4)c4ccsc4c3-c3c(F)cc(F)cc3OCCOC)nn2[C@@H](C)C1` [Compound 739], in the test with pAKT in BT474 cells (Compounds 10-999), the IC50 was below 100 nM. Besides, the “% of modification” value in test [1] (setting [3]) is recorded as “A (percent of modification of PIK3CA protein ≥75%)”.
